Like-named read-outs stand apart in the source and are kept apart here.

One data set concerns Panc-1. As to the kind of experiment: Cancer cell proliferation assay, Panc-1. The format is cell-based. The note with it: Homo sapiens, PANC-1; Table 2a; A-ring modified analogues; read-out: IC50 (μM) Panc-1. As for the experimental part: (§1) In Vitro Determination of Effects of Synthesized Diterpenoids on Cancer Cell Proliferation. […] Then MTT solution was removed, and 150 μL of DMSO was added to each well. Absorbance of all wells was determined by measuring OD at 550 nm after a 10 min incubation on a 96-well GlowMaxate absorbance reader (Promega, Madison, Wis.). Each individual compound was tested in quadruplicate wells for each concentration.

The next data set concerns MDA-MB-231 cells. The experiment in a line: Colony formation in MDA-MB-231 cells. Type of data set: cell-based.
For a further data set, the system named is HMEC cells. The experiment in a line: Toxicity in HMEC cells. The format is cell-based.
The next data set deals with MCF-7. The experiment in a line: MTT cancer cell proliferation assay, MCF-7. Type of data set: cell-based, human. The note with it: Homo sapiens. The essentials: (§2)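 Cells seeded at 1×10^4/well and exposed 48 h to 0.01-100 μM compound (0.01, 0.1, 1, 5, 10, 100 μM) or DMSO. MTT added for a further 4 h, formazan dissolved in DMSO and OD read at 550 nm; quadruplicate wells per concentration. MCF-7 is ER-positive; MDA-MB-231 ER-negative, triple-negative.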

Data set [1] in a line: Body weight and tolerability in xenograft mice. The settings on record: 5.0 mg/kg ip. An excerpt:
(§3) FIG. 14. […] Values are mean±SE of three independent experiments.
(§4) In pilot in vivo studies, this compound was further evaluated for its anticancer activity in suppression of tumor growth in the triple-negative breast cancer MDA-MB-231 xenograft model.

Data set [2] concerns xenograft tumors (breast cancer MDA-MB-231). As to the kind of experiment: MDA-MB-231 xenograft tumor growth in mice. The note with it: 5.0 mg/kg ip; triple-negative MDA-MB-231 xenograft; p<0.0001. The format is in vivo.
Excerpt: as §3, §4

The subject of the next data set is AsPC1. As to the kind of experiment: Cancer cell proliferation assay, AsPC1. The format is cell-based. The settings on record: Homo sapiens, ASPC1; Table 2a; A-ring modified analogues; read-out: IC50 (μM) AsPC1. On the procedure: as §1
The subject of data set [3] is breast, pancreatic, and prostate cancer cell lines. The experiment in a line: Anti-proliferation effects against cancer cell lines. Type of data set: cell-based, human. The settings on record: summary of Tables 1 and 2. On the procedure:
In Vitro Determination of Effects of Synthesized Diterpenoids on Cancer Cell Proliferation. Breast cancer cell lines MCF-7, MDA-MB-231, […] and MCF/ADR were seeded in 96-well plates at a density of 1×10^4 cells/well and treated with DMSO and 0.01, 0.1, 1, 5, 10, and 100 μM of individual compound for 48 h, and then 20 μL of 3-(4,5-dimethylthiazol-2-yl)-2,5-diphenyltetrazolium bromide (MTT) (5 mg/mL in PBS) was added to each well and further incubated for another 4 h. Then MTT solution was removed, and 150 μL of DMSO was added to each well. Absorbance of all wells was determined by measuring OD at 550 nm after a 10 min incubation on a 96-well GlowMaxate absorbance reader (Promega, Madison, Wis.). Each individual compound was tested in quadruplicate wells for each concentration.

A further data set relates to MCF-7/ADR. As to the kind of experiment: MTT growth inhibition, drug-resistant MCF-7/ADR. The format is cell-based. The settings on record: Homo sapiens, NCI/ADR-RES, 24 h, Table 1d; drug-resistant breast cancer cells; mean ± SE of three experiments.
The next data set relates to MDA-MB-231. The experiment in a line: MTT cancer cell proliferation assay, MDA-MB-231. Type of data set: cell-based, human. The note with it: Homo sapiens. The essentials: as §2

For `C=C1C(=O)[C@@]23[C@@H]4OC(C)(C)OC25OC[C@]2(C=CC(=O)C(C)(C)[C@H]2[C@@H]5O)[C@@H]3CC[C@@H]14` [CYD-6-86, (3S,3aR,3a^1R,6aR,7S,7aS,11aR,11bS)-7-hydroxy-5,5,8,8-tetramethyl-15-methylene-3,3a,7,7a,8,11b-hexahydro-1H-6a,11a-(epoxymethano)-3,3a^1-ethanophenanthro[1,10-de][1,3]dioxine-9,14(2H)-dione], the IC50 turned out to be 6.49 µM with Panc-1; 0.98 ± 0.19 µM with MCF-7 (MCF7, Table 1c, dienone analogues, mean ± SE of three experiments, read-out: Antiproliferative effect MCF-7 (IC50)); 0.86 µM in the data set with MCF-7 (MCF7, Table 2a, A-ring modified analogues, read-out: IC50 (μM) MCF-7); 0.81 µM with AsPC1; 6.02 ± 1.28 µM with MCF-7/ADR; 5.6 ± 1.06 µM in the data set on MDA-MB-231 (MDA-MB-231, Table 1c, dienone analogues, mean ± SE of three experiments, read-out: Antiproliferative effect MDA-MB-231 (IC50)). Moreover, the IC50 with MDA-MB-231 (MDA-MB-231, Table 2a, A-ring modified analogues, read-out: IC50 (μM) MDA-MB-231) was 4.39 µM. Further, the “Antiproliferative and colony formation inhibitory effects in MDA-MB-231 cells” value with MDA-MB-231 cells was “potent antiproliferative and colony formation inhibitory effects”. Further, the “Toxicity in HMEC cells” value in the data set with HMEC cells was “lower toxicity”. Also, the “Loss of body weight” value in [1] is reported as “no significant loss of body weight”. In addition, the “Tolerability during the experiments” value in [1] is on record as “well tolerated”. For the same compound, the “Inhibition of xenograft tumor growth compared to oridonin at the same dose” value in data set [2] is recorded as “much more efficacious in suppressing xenograft tumor growth”. Moreover, in data set [3], the “IC50 values, anti-proliferation effects against cancer cell lines” value was “low micromolar to nanomolar”.

(Values after patent US9725460B2, “Oridonin analogs, compositions, and methods related thereto” (THE BOARD OF REGENTS OF THE UNIVERSITY OF TEXAS SYSTEM, priority 2013, dated 2017).)
